Experimental data as given in ChEMBL document CHEMBL1154382, “Preliminary SAR analysis of novel antiproliferative N(6),5'-bis-ureidoadenosine derivatives” (2009).
Activity calls are given as the source filed them.

Tests used:
Format in all cases: functional
[1] = system: EKVX; test: Antiproliferative activity against human EKVX cells at 10 uM assessed as cell growth inhibition relative to control
[2] = system: MDA-MB-231; test: Antiproliferative activity against human MDA-MB-231 cells at 10 uM assessed as cell growth inhibition relative to control
[3] = system: HCC 2998; test: Antiproliferative activity against human HCC2998 cells at 10 uM assessed as cell growth inhibition relative to control
[4] = system: SNB-75; test: Antiproliferative activity against human SNB75 cells at 10 uM assessed as cell growth inhibition relative to control
[5] = system: Malme-3M; test: Antiproliferative activity against human MALME-3M cells at 10 uM assessed as cell growth inhibition relative to control
[6] = system: RXF 393; test: Antiproliferative activity against human RXF393 cells at 10 uM assessed as cell growth inhibition relative to control
[7] = system: NCI-H460; test: Antiproliferative activity against human NCI-H460 cells at 10 uM assessed as cell growth inhibition relative to control
[8] = system: U-251; test: Antiproliferative activity against human U251 cells at 10 uM assessed as cell growth inhibition relative to control
[9] = system: BT-549; test: Antiproliferative activity against human BT549 cells at 10 uM assessed as cell growth inhibition relative to control
[10] = system: SF-295; test: Antiproliferative activity against human SF295 cells at 10 uM assessed as cell growth inhibition relative to control
[11] = system: SF-539; test: Antiproliferative activity against human SF539 cells at 10 uM assessed as cell growth inhibition relative to control
[12] = system: TK-10; test: Antiproliferative activity against human TK10 cells at 10 uM assessed as cell growth inhibition relative to control
[13] = system: SK-OV-3; test: Antiproliferative activity against human SKOV3 cells at 10 uM assessed as cell growth inhibition relative to control
[14] = system: UACC-62; test: Antiproliferative activity against human UACC62 cells at 10 uM assessed as cell growth inhibition relative to control
[15] = system: NCI-H522; test: Antiproliferative activity against human NCI-H522 cells at 10 uM assessed as cell growth inhibition relative to control
[16] = system: NCI-H322M; test: Antiproliferative activity against human NCI-H322M cells at 10 uM assessed as cell growth inhibition relative to control
[17] = system: NCI-H226; test: Antiproliferative activity against human NCI-H226 cells at 10 uM assessed as cell growth inhibition relative to control
[18] = system: KM12; test: Antiproliferative activity against human KM12 cells at 10 uM assessed as cell growth inhibition relative to control
[19] = system: CCRF-CEM; test: Antiproliferative activity against human CCRF-CEM cells at 10 uM assessed as cell growth inhibition relative to control
[20] = system: T47D; test: Antiproliferative activity against human T47D cells at 10 uM assessed as cell growth inhibition relative to control
[21] = system: A549; test: Antiproliferative activity against human A549 cells at 10 uM assessed as cell growth inhibition relative to control
[22] = system: COLO 205; test: Antiproliferative activity against human COLO205 cells at 10 uM assessed as cell growth inhibition relative to control
[23] = system: NCI-H23; test: Antiproliferative activity against human NCI-H23 cells at 10 uM assessed as cell growth inhibition relative to control
[24] = system: 786-0; test: Antiproliferative activity against human 786-0 cells at 10 uM assessed as cell growth inhibition relative to control
[25] = system: HOP-62; test: Antiproliferative activity against human HOP62 cells at 10 uM assessed as cell growth inhibition relative to control
[26] = system: MOLT-4; test: Antiproliferative activity against human MOLT4 cells at 10 uM assessed as cell growth inhibition relative to control
[27] = system: A498; test: Antiproliferative activity against human A498 cells at 10 uM assessed as cell growth inhibition relative to control
[28] = system: SW-620; test: Antiproliferative activity against human SW620 cells at 10 uM assessed as cell growth inhibition relative to control
[29] = system: M14; test: Antiproliferative activity against human M14 cells at 10 uM assessed as cell growth inhibition relative to control
[30] = system: OVCAR-5; test: Antiproliferative activity against human OVCAR5 cells at 10 uM assessed as cell growth inhibition relative to control
[31] = system: HCT-116; test: Antiproliferative activity against human HCT116 cells at 10 uM assessed as cell growth inhibition relative to control
[32] = system: LOX IMVI; test: Antiproliferative activity against human LOXIMVI cells at 10 uM assessed as cell growth inhibition relative to control
[33] = system: SK-MEL-5; test: Antiproliferative activity against human SK-MEL-5 cells at 10 uM assessed as cell growth inhibition relative to control
[34] = system: OVCAR-8; test: Antiproliferative activity against human OVCAR8 cells at 10 uM assessed as cell growth inhibition relative to control
[35] = system: SK-MEL-2; test: Antiproliferative activity against human SK-MEL-2 cells at 10 uM assessed as cell growth inhibition relative to control
[36] = system: UACC-257; test: Antiproliferative activity against human UACC257 cells at 10 uM assessed as cell growth inhibition relative to control
[37] = system: HCT-15; test: Antiproliferative activity against human HCT15 cells at 10 uM assessed as cell growth inhibition relative to control
[38] = system: SF-268; test: Antiproliferative activity against human SF268 cells at 10 uM assessed as cell growth inhibition relative to control
[39] = system: K562; test: Antiproliferative activity against human K562 cells at 10 uM assessed as cell growth inhibition relative to control
[40] = system: UO-31; test: Antiproliferative activity against human UO31 cells at 10 uM assessed as cell growth inhibition relative to control
[41] = system: Hs-578T; test: Antiproliferative activity against human Hs 578T cells at 10 uM assessed as cell growth inhibition relative to control
[42] = system: ACHN; test: Antiproliferative activity against human ACHN cells at 10 uM assessed as cell growth inhibition relative to control
[43] = system: IGROV-1; test: Antiproliferative activity against human IGROV1 cells at 10 uM assessed as cell growth inhibition relative to control
[44] = system: HL-60(TB); test: Antiproliferative activity against human HL-60(TB) cells at 10 uM assessed as cell growth inhibition relative to control
[45] = system: SK-MEL-28; test: Antiproliferative activity against human SK-MEL-28 cells at 10 uM assessed as cell growth inhibition relative to control
[46] = system: MCF7; test: Antiproliferative activity against human MCF7 cells at 10 uM assessed as cell growth inhibition relative to control
[47] = system: MDA-MB-468; test: Antiproliferative activity against human MDA-MB-468 cells at 10 uM assessed as cell growth inhibition relative to control
[48] = system: OVCAR-4; test: Antiproliferative activity against human OVCAR4 cells at 10 uM assessed as cell growth inhibition relative to control
[49] = system: SN12C; test: Antiproliferative activity against human SN12C cells at 10 uM assessed as cell growth inhibition relative to control
[50] = system: SNB-19; test: Antiproliferative activity against human SNB19 cells at 10 uM assessed as cell growth inhibition relative to control
[51] = system: OVCAR-3; test: Antiproliferative activity against human OVCAR-3 cells at 10 uM assessed as cell growth inhibition relative to control
[52] = system: PC-3; test: Antiproliferative activity against human PC3 cells at 10 uM assessed as cell growth inhibition relative to control
[53] = system: CAKI-1; test: Antiproliferative activity against human Caki1 cells at 10 uM assessed as cell growth inhibition relative to control
[54] = system: HOP-92; test: Antiproliferative activity against human HOP92 cells at 10 uM assessed as cell growth inhibition relative to control
[55] = system: DU-145; test: Antiproliferative activity against human DU145 cells at 10 uM assessed as cell growth inhibition relative to control
[56] = system: RPMI8266; test: Antiproliferative activity against human […] cells at 10 uM assessed as cell growth inhibition relative to control
[57] = system: HT-29; test: Antiproliferative activity against human HT-29 cells at 10 uM assessed as cell growth inhibition relative to control

Measured: growth inhibition (GI)

CNC(=O)NC[C@H]1O[C@@H](n2cnc3c(NC(=O)Nc4ccccc4)ncnc32)[C@@H]2OC(C)(C)O[C@@H]21
inactive: [1] | [2] | [3] | [4] | [5] | [6] | [7] | [8] | [9] | [10] | [11] | [12] | [13] | [14] | [15] | [16] | [17] | [18] | [19] | [20] | [21] | [22] | [23] | [24] | [25] | [26] | [27] | [28] | [29] | [30] | [31] | [32] | [33] | [34] | [35] | [36] | [37] | [38] | [39] | [40] | [41] | [42] | [43] | [44] | [45] | [46] | [47] | [48] | [49] | [50] | [51] | [52] | [53] | [54] | [55] | [56] | [57]
